# Values joined by “and” are separate entries in the source; they are usually repeats but may differ in a detail not shown here. Identical values can stand only once. “Also recorded” adds a separate entry of the source. Like-named read-outs stand apart in the source and are kept apart here.
# Tests used:
# SARS-CoV-2 (B1 strain) = experiment: microbe, parasite or virus in culture; assay type: cell-based; settings: Severe acute respiratory syndrome coronavirus 2; SARS-CoV-2 B1, in a variety of cell types
# SHC014 = experiment: organism not typed; assay type: cell-based, bat SHC014
# HCoV-229E [1] = experiment: microbe, parasite or virus in culture; assay type: cell-based
# HCoV-229E [2] = experiment: microbe, parasite or virus in culture; assay type: cell-based; settings: Human coronavirus 229E
# HCoV-NL63 = HCoV-NL63 CPE reduction assay in LLC-MK2 cells; assay type: cell-based
# HCoV-OC43 = HCoV-OC43 antiviral CPE reduction assay in MRC-5 cells; assay type: cell-based
# From the text: 161 determined with Promega CellTiter 96™ via a colorimetric assay (MTS assay). Readout was done
# 162 using a GloMax® Discover Microplate Reader (Promega).
# 163 Data were normalized taking the infected cells without treatment and the mock non-infected cells
# 164 as the bottom and top values of the dose-response curves, respectively. Dose-response curves were
# 165 fitted using non-linear regression analysis employing a sigmoidal model in Graphpad Prism
# 166 (version 9.5.0). In each experiment, data were presented as mean ± standard error of the mean of
# 167 3 technical replicates.
# 168 HCoV-OC43 antiviral CPE reduction assay
# 169 For the HCoV-OC43 CPE reduction assay, MRC-5 cells were seeded in black or white 96-well
# 170 plates (Greiner Bio-One) at a density of 10,000 cells/well and incubated overnight at 37°C. The
# 171 next day, compound was added to the assay plates in either a 4-fold dilution series or 2-fold dilution
# 172 series. Sequentially, cells were infected with HCoV-OC43 at a final MOI of 0.3. Plates were then
# 173 incubated for 6 days at 33°C under 5% CO2. […]
# 174 determined using the Viral ToxGlo™ assay (Promega) on a BioTek spectrophotometer.
# 175 Cytotoxicity was evaluated in parallel in treated, uninfected cells in a similar set-up with the same
# 176 readout. EC50 and CC50 values were calculated using GraphPad Prism 9.5.0. […]
# 181 0.1. […] Readouts for antiviral activity […]
# SARS-CoV = experiment: microbe, parasite or virus in culture; assay type: cell-based; settings: Severe acute respiratory syndrome coronavirus, Vero
# MHV = MHV antiviral assay in Huh7 cells (luciferase); assay type: cell-based, mouse hepatitis virus; settings: Murine coronavirus, Huh-7, Huh7, MHV (betaCoV), N=2
# MERS-CoV = experiment: microbe, parasite or virus in culture; assay type: cell-based; settings: Middle East respiratory syndrome-related coronavirus, Huh-7, read-out: Median EC50
# IBV = experiment: microbe, parasite or virus in culture; assay type: cell-based, infectious bronchitis virus
# PDCoV = PDCoV antiviral CPE reduction assay in Huh7 cells; assay type: cell-based, porcine deltacoronavirus
# [3] = molecular target: purified recombinant SARS-CoV-2 M (Severe acute respiratory syndrome coronavirus 2, UniProt P0DTC5); experiment: Nano differential scanning fluorimetry (nanoDSF); assay type: binding; settings: 100 µM compound, 0.5 mg/ml M protein, n=3
# SARS-CoV-2 = assay type: in vivo, Syrian golden hamster; settings: for Infectious virus in the lung (TCID50), average Log 10 / Infectious virus in the lung (TCID50), median Log 10 / Viral load (viral RNA) in the lung, average Log 10 / Viral load (viral RNA) in the lung, median Log 10 / Infectious virus in the lung (TCID50), Copy number, individual animal / Infectious virus in the lung (TCID50), Log 10, individual animal / Viral load (viral RNA) in the lung, Copy number, individual animal / Viral load (viral RNA) in the lung, Log 10, individual animal: 75 mg/kg BID; for Infectious virus in the lung (TCID50), average Log 10 / Infectious virus in the lung (TCID50), median Log 10 / Viral load (viral RNA) in the lung, average Log 10 / Viral load (viral RNA) in the lung, median Log 10: n=5; for Infectious virus in the lung (TCID50), Copy number, individual animal / Infectious virus in the lung (TCID50), Log 10, individual animal / Viral load (viral RNA) in the lung, Copy number, individual animal / Viral load (viral RNA) in the lung, Log 10, individual animal: listed as 87009676-AAA
# [4] = system: SARS-CoV-2 (USA-WA1/2020); parameters: species or system Syrian golden hamster; settings: hamster, in vivo
# in vivo [5] = settings: dog
# in vivo [6] = settings: cynomolgus monkey
# in vitro [7] = settings: rhesus monkey
# in vitro [8] = settings: African green monkey
compound,measurement,setting,value
"C[C@H]1Cn2ncc(C(=O)Nc3cccc(C#N)c3)c2C(=O)N1c1ccc(C(F)(F)c2ccccc2)cc1 [JNJ-9676, (S)-N-(3-cyanophenyl)-5-(4-(difluoro(phenyl)methyl)phenyl)-6-methyl-4-oxo-4,5,6,7-tetrahydropyrazolo[1,5-a]pyrazine-3-carboxamide]",EC50,SARS-CoV-2 (B1 strain),0.014 to 0.022 µM
same,EC50,SHC014,0.004 to 0.006 µM
same,EC50,"HCoV-229E [1]; Human coronavirus 229E, Huh-7, read-out: Median EC50",> 30 µM
same,EC90,"HCoV-229E [1]; Human coronavirus 229E, Huh-7, read-out: Median EC90",> 30 µM
same,antiviral activity (in words),"HCoV-229E [1]; […], cell type not given",no activity
same,EC50,HCoV-229E [2]; read-out: Median EC50,> 12.5 µM
same,EC90,HCoV-229E [2]; read-out: Median EC90,> 12.5 µM
same,antiviral activity (in words),HCoV-NL63; HCoV-NL63,no activity
same,EC50,"HCoV-NL63; Human coronavirus NL63, LLC-MK2, HCoV-NL63 (alphaCoV), N=2, read-out: Median EC50",> 20 µM
same,EC90,"HCoV-NL63; Human coronavirus NL63, LLC-MK2, HCoV-NL63 (alphaCoV), N=2, read-out: Median EC90",> 20 µM
same,EC90,"HCoV-OC43; Betacoronavirus 1, MRC5, MRC-5, HCOV-OC43 (betaCoV), EC90 could be calculated in one experiment, read-out: Median EC90",4 µM
same,EC50,"HCoV-OC43; Betacoronavirus 1, OC43, MRC5, read-out: Median EC50",3.9 µM
same,EC50,SARS-CoV; read-out: Median EC50,0.016 µM
same,EC90,SARS-CoV; read-out: Median EC90,0.02 µM
same,EC50,MHV; read-out: Median EC50,3.4 µM
same,EC90,MHV; read-out: Median EC90,12.4 µM
same,EC50,MERS-CoV,0.6 µM
same,EC50,"IBV; Avian coronavirus, Huh-7, read-out: Median EC50",8 µM
same,EC90,"IBV; Avian coronavirus, Huh-7, read-out: Median EC90",> 30 µM
same,potency (in words),IBV; gammacoronavirus IBV,single-digit micromolar potency
same,EC50,"PDCoV; Coronavirus HKU15, Huh-7, Huh7, PDCoV (deltaCoV), N=2, read-out: Median EC50",> 30 µM
same,EC90,"PDCoV; Coronavirus HKU15, Huh-7, Huh7, PDCoV (deltaCoV), N=2, read-out: Median EC90",> 30 µM
same,antiviral activity (in words),PDCoV; PDCoV,no activity
same,Tm,[3],54.1 ± 0.1 °C
same,ΔTm (stabilization in melting temperature),[3],0.9 °C
same,"Infectious virus in the lung (TCID50), average Log 10",SARS-CoV-2; 10 h post exposure,1.99 Log 10
same,"Infectious virus in the lung (TCID50), median Log 10",SARS-CoV-2; 10 h post exposure,1.84 Log 10
same,"Viral load (viral RNA) in the lung, average Log 10",SARS-CoV-2; 10 h post exposure,6.33 Log 10
same,"Viral load (viral RNA) in the lung, median Log 10",SARS-CoV-2; 10 h post exposure,6.02 Log 10
same,"Infectious virus in the lung (TCID50), Copy number, individual animal",SARS-CoV-2; 10 h post exposure,3.34E+02 and 6.93E+01 and 7.21E+00 and 6.50E+01 and 8.01E+02
same,"Infectious virus in the lung (TCID50), Log 10, individual animal",SARS-CoV-2; 10 h post exposure,2.52 Log 10 and 1.84 Log 10 and 0.86 Log 10 and 1.81 Log 10 and 2.90 Log 10
same,"Viral load (viral RNA) in the lung, Copy number, individual animal",SARS-CoV-2; 10 h post exposure,1.05E+06 and 4.63E+06 and 1.13E+05 and 8.39E+05 and 9.46E+07
same,"Viral load (viral RNA) in the lung, Log 10, individual animal",SARS-CoV-2; 10 h post exposure,6.02 Log 10 and 6.67 Log 10 and 5.05 Log 10 and 5.92 Log 10 and 7.98 Log 10
same,"Infectious virus in the lung (TCID50), average Log 10",SARS-CoV-2; 24 h post exposure,1.64 Log 10
same,"Infectious virus in the lung (TCID50), median Log 10",SARS-CoV-2; 24 h post exposure,1.62 Log 10
same,"Viral load (viral RNA) in the lung, average Log 10",SARS-CoV-2; 24 h post exposure,6.39 Log 10
same,"Viral load (viral RNA) in the lung, median Log 10",SARS-CoV-2; 24 h post exposure,6.81 Log 10
same,"Infectious virus in the lung (TCID50), Copy number, individual animal",SARS-CoV-2; 24 h post exposure,4.14E+01 and 7.14E+01 and 5.40E+01 and 2.87E+01 and 3.52E+01
same,"Infectious virus in the lung (TCID50), Log 10, individual animal",SARS-CoV-2; 24 h post exposure,1.62 Log 10 and 1.85 Log 10 and 1.73 Log 10 and 1.46 Log 10 and 1.55 Log 10
same,"Viral load (viral RNA) in the lung, Copy number, individual animal",SARS-CoV-2; 24 h post exposure,9.36E+06 and 2.59E+04 and 3.10E+05 and 6.49E+06 and 1.85E+08
same,"Viral load (viral RNA) in the lung, Log 10, individual animal",SARS-CoV-2; 24 h post exposure,6.97 Log 10 and 4.41 Log 10 and 5.49 Log 10 and 6.81 Log 10 and 8.27 Log 10
same,"Infectious virus in the lung (TCID50), average Log 10",SARS-CoV-2; 48 h post exposure,1.82 Log 10
same,"Infectious virus in the lung (TCID50), median Log 10",SARS-CoV-2; 48 h post exposure,1.67 Log 10
same,"Viral load (viral RNA) in the lung, average Log 10",SARS-CoV-2; 48 h post exposure,7.33 Log 10
same,"Viral load (viral RNA) in the lung, median Log 10",SARS-CoV-2; 48 h post exposure,7.46 Log 10
same,"Infectious virus in the lung (TCID50), Copy number, individual animal",SARS-CoV-2; 48 h post exposure,4.79E+01 and 7.10E+02 and 4.67E+01 and 2.27E+01 and 3.31E+01
same,"Infectious virus in the lung (TCID50), Log 10, individual animal",SARS-CoV-2; 48 h post exposure,1.68 Log 10 and 2.85 Log 10 and 1.67 Log 10 and 1.36 Log 10 and 1.52 Log 10
same,"Viral load (viral RNA) in the lung, Copy number, individual animal",SARS-CoV-2; 48 h post exposure,5.20E+06 and 3.10E+06 and 6.15E+07 and 1.50E+08 and 2.86E+07
same,"Viral load (viral RNA) in the lung, Log 10, individual animal",SARS-CoV-2; 48 h post exposure,6.72 Log 10 and 6.49 Log 10 and 7.79 Log 10 and 8.18 Log 10 and 7.46 Log 10
same,efficacy (in words),"SARS-CoV-2; hamster, in vivo",efficacious; also recorded: significant efficacy
same,reduction of infectious virus in the lung,"SARS-CoV-2; hamster, in vivo",1.8 log10[TCID50 per mg lung]
same,"Infectious virus in the lung, reduction relative to vehicle","SARS-CoV-2; hamster, in vivo, 75 mg/kg",1.65 (p=0.0003) log10 TCID50/mg lung and 2.00 (p<0.0001) log10 TCID50/mg lung and 1.83 (p<0.0001) log10 TCID50/mg lung and 1.65 (p=0.0003) log10 TCID50/mg lung and 2.00 (p<0.0001) log10 TCID50/mg lung and 1.83 (p<0.0001) log10 TCID50/mg lung
same,"Viral load in the lung, reduction relative to vehicle","SARS-CoV-2; hamster, in vivo, 75 mg/kg",2.38 (p=0.0004) log10 copies/mg lung and 2.32 (p=0.0005) log10 copies/mg lung and 1.38 (p>0.05) log10 copies/mg lung and 2.38 (p=0.0004) log10 copies/mg lung and 2.32 (p=0.0005) log10 copies/mg lung and 1.38 (p>0.05) log10 copies/mg lung
same,"Infectious SARS-CoV2 virus in the lung, Avg",[4],137996 PFU/g Lung and 75729 PFU/g Lung
same,"Infectious SARS-CoV2 virus in the lung, Log10, Avg",[4],3.732 Log10 PFU/g Lung and 3.479 Log10 PFU/g Lung
same,Vd,in vivo [5],8.2 L/kg
same,clearance,in vivo [5],< 1.5 mL/min/kg
same,half-life,in vivo [5],> 40 h
same,bioavailability,in vivo [5]; po,> 80%
same,Vd,in vivo [6],5.1 L/kg
same,clearance,in vivo [6],1.9 mL/min/kg
same,half-life,in vivo [6],35 h
same,bioavailability,in vivo [6]; po,> 30%
same,CC50 at 6 days,in vitro [7],> 20 µM
same,CC50,in vitro [8],> 50 µM
